For three compounds, Ki and K inact results are on record in ChEMBL document CHEMBL1128780, “Inactivation of carboxypeptidase a by 2-benzyl-3,4-epithiobutanoic acid” (Bioorg Med Chem Lett, 1995).

The nature of experiment [1]: (§1) Inhibitory activity against Carboxypeptidase A (CPA).
Experiment [2] is described as follows: as §1. This is another data set of the same source.

Structures are written as SMILES.

Compound `O=C(O)[C@H](Cc1ccccc1)[C@H]1CO1` (single isomer, unassigned) yielded a Ki in experiment [1] of 86 µM. The compound also displayed a K inact in experiment [2] of 1.59 min⁻¹.
With `O=C(O)[C@@H](Cc1ccccc1)[C@H]1CO1`, the affinity in experiment [1], expressed as Ki, was 155 µM. The same compound registered a K inact in experiment [2] of 1.11 min⁻¹.
For `O=C(O)[C@H](Cc1ccccc1)[C@H]1CS1`, in experiment [1], affinity was put at a Ki of 94 µM. In experiment [2], this compound had a K inact of 1.31 min⁻¹.
